Reference: ChEMBL document CHEMBL5728837, “Non-fused tricyclic compounds” (2021)

Assay: YAP Reporter Assay: HEK293T cells stably transfected with 8XTBD luciferase reporter and pRLTK in 384-well plates were treated with the test compounds, starting from 3 μM (final concentration in assay plate), 1:3 dilution, and 10 points in quadruplicates. Post 24-hr incubation with compounds at 37° C. and 5% CO2, cells were lysed and 8XTBD-driven firefly luciferase and control TK-driven renilla luciferase activities were measured using Promega Dual-Luciferase Reporter Assay System.Reagents: The reagents used for this study are: DMEM: Invitrogen #11960077, Dual-Glo Luciferase Assay System: Promega-E2980, Puromycin Dihydrochloride: Invitrogen-A1113803, 384-well plate: PerkinElmer-6007480, L-GLUTAMINE: Invitrogen-25030164, Hygromycin B: Invitrogen-10687010, and Penicillin-Streptomycin: Merk-TMS-AB2-CMedia: The media used for this assay were: Culture Medium: DMEM+1 ug/mL puromycin+200 ug/mL hygromycin (with 10% FBS+1 mM L-glutamine); and Assay Medium: DMEM (with 10% FBS+1 mM L-glutamine+1× P/S).Cell Plating: The appropriate media was warmed at 37° C. by water bath: Culture Medium, Assay Medium, 1*D-PBS, 0.05% trypsin-EDTA. The cells were trypsinized after removing all media, then washed with 1*sterile D-PBS and then with 2 ml 0.05% trypsin-EDTA. The cells were then incubated at RT for one minute. Then 10 ml/75 cm2 flask Assay Medium was added to each flask. Using a 10 ml pipette, the cells were then gently resuspended in the media, until the clumps completely disappeared. The cells were then transferred into 50 ml centrifuge tubes and were centrifuged at 800 rpm for 5 mins. The medium was removed and the cells were resuspended with Assay Medium. An aliquot of cells was used to count the cell density (cells/nil). The cell suspension was then diluted with Assay Medium to a concentration of 6×10^4 cells/ml. 50 ul cells suspension was then plated to 384-well plate (PerkinElmer-6007480), 3×10^3 cells/well and the cells were incubated in an incubator at 37° C., 5% CO2.Compound Treatment: In the afternoon (incubation of the plate with 3-4 hrs), the test compounds were added by Echo, starting from 3 uM (final concentration in the assay plate), 1:3 dilution, 10 points, quadruplicates. The plate was placed at 37° C., 5% CO2 incubator for 24 hrs.Detection: The Dual-Glo Luciferase Reagent was prepared by transferring the contents of one bottle of Dual-Glo Luciferase Buffer to one bottle of Dual-Glo Luciferase Substrate to create the Dual-Glo Luciferase Reagent. Mixing was performed by inversion until the substrate was thoroughly dissolved. After mixing, the reagent was aliquoted into 15 ml tubes. In the afternoon (24 hrs post compound treatment), the DMEM+ medium in the 384 well plates were aspirated by Microplate Washer.Measuring firefly luciferase activity: 20 ul Dual-Glo Luciferase Reagent was added to the 384-well plates. The plates were protected from light to prevent interference with the assay. The plates were shaken for 1 min followed centrifuging plates at 1000 rpm for 30 seconds. After waiting at least 10 minutes, the firefly luminescence was measured by Envision.Measuring renilla luciferase activity: 20 ul Stop-Glo Reagent was added to the 384-well plates. The plates were shaken for lmin and then centrifuged at 1000 rpm for 30 seconds. After waiting at least 10 minutes, the renilla luminescence was measured by Envision.

Row | Structure (SMILES) | IC50 (HEK-293T, 24 h) | IC50
1 | OC(Cn1nnc(-c2ccccc2Nc2ccc(C(F)(F)F)cc2)n1)C(F)(F)F (stereo unspecified) | < 0.1 µM | –
2 | CN(C)CCCn1nnc(-c2ccccc2Nc2ccc(C(F)(F)F)cc2)n1 | in the range around 3 µM | –
3 | CS(=O)(=O)NCCCn1nnc(-c2ccccc2Nc2ccc(C(F)(F)F)cc2)n1 | in the range around 3 µM | –
4 | OCCn1nnc(-c2cccnc2Nc2ccc(C(F)(F)F)cc2)n1 | in the range around 0.55 µM | –
5 | OCCn1nnc(-c2ccccc2Nc2cccc(F)c2)n1 | in the range around 0.55 µM | –
6 | OCCn1nnc(-c2ccccc2Nc2ccc(F)cc2F)n1 | in the range around 0.55 µM | –
7 | OCCn1nnc(-c2cccnc2Nc2ccc(OC(F)(F)F)cc2)n1 | in the range around 0.55 µM | –
8 | OCCn1nnc(-c2ccccc2Nc2cccc(OC(F)(F)F)c2)n1 | in the range around 0.55 µM | –
9 | CN(C)CCCn1nnc(-c2ccccc2Nc2ccc(OC(F)(F)F)cc2)n1 | in the range around 3 µM | –
10 | FC(F)(F)Oc1ccc(Nc2ccccc2-c2nnn(Cc3cccnc3)n2)cc1 | in the range around 3 µM | –
11 | NC(=O)NCCn1nnc(-c2ccccc2Nc2ccc(C(F)(F)F)cc2)n1 | < 0.1 µM | –
12 | CC(C)(O)Cn1nnc(-c2ccccc2Nc2ccc(C(F)(F)F)cc2)n1 | < 0.1 µM | –
13 | O=C(Cn1nnc(-c2ccccc2Nc2ccc(C(F)(F)F)cc2)n1)N1CCCC1 | in the range around 0.55 µM | –
14 | CC(CO)n1nnc(-c2ccccc2Nc2ccc(C(F)(F)F)cc2)n1 (stereo unspecified) | < 0.1 µM | –
15 | COCCn1nnc(-c2ccccc2Nc2cccc(C(F)(F)F)c2)n1 | in the range around 3 µM | –
16 | CCOC(=O)Cn1cc(-c2ccccc2Nc2cccc(C(F)(F)F)c2)cn1 | in the range around 0.55 µM | –
17 | NC(=O)OCCn1nnc(-c2ccccc2Nc2ccc(C(F)(F)F)cc2)n1 | < 0.1 µM | –
18 | OCCn1nnc(-c2ccccc2Nc2ccc(C(F)(F)F)cc2)n1 | < 0.1 µM | < 0.1 µM
19 | CCc1cccc(Nc2ccccc2-c2nnn(CCO)n2)c1 | in the range around 0.55 µM | –
20 | NC(=O)Cn1nnc(-c2ccccc2Nc2ccc(C(F)(F)F)cc2)n1 | < 0.1 µM | –
21 | FC(F)(F)c1ccc(Nc2ccccc2-c2nnn(Cc3ccncc3)n2)cc1 | in the range around 0.55 µM | –
22 | CC(=O)NCCCn1nnc(-c2ccccc2Nc2ccc(C(F)(F)F)cc2)n1 | in the range around 0.55 µM | –
23 | CCOC(=O)Cn1nnc(-c2ccccc2Nc2ccc(F)cc2)n1 | in the range around 0.55 µM | –

Row | Structure (SMILES) | IC50 (HEK-293T, 24 h) | IC50
24 | FC(F)(F)c1ccc(Nc2ccccc2-c2nnn(C3COC3)n2)cc1 | < 0.1 µM | –
25 | OCCn1nnc(-c2cnccc2Nc2ccc(C(F)(F)F)cc2)n1 | in the range around 3 µM | –
26 | OCCn1nnc(-c2ccccc2Nc2ccccc2F)n1 | in the range around 3 µM | –
27 | CCOC(=O)C(C)n1nnc(-c2ccccc2Nc2ccc(C(F)(F)F)cc2)n1 (stereo unspecified) | < 0.1 µM | –
28 | FCCCn1nnc(-c2ccccc2Nc2ccc(C(F)(F)F)cc2)n1 | in the range around 0.55 µM | –
29 | FCCn1nnc(-c2ccccc2Nc2ccc(C(F)(F)F)cc2)n1 | in the range around 0.55 µM | –
30 | OC(Cn1nnc(-c2ccccc2Nc2ccc(C(F)(F)F)cc2)n1)C1CC1 (stereo unspecified) | < 0.1 µM | –
31 | CC(O)Cn1nnc(-c2ccccc2Nc2ccc(C(F)(F)F)cc2)n1 (stereo unspecified) | < 0.1 µM | –
32 | FC(F)(F)c1ccc(Nc2ccccc2-c2nnn(Cc3cccnc3)n2)cc1 | in the range around 0.55 µM | –
33 | FC(F)(F)Oc1ccc(Nc2ccccc2-c2nnn(Cc3ccccn3)n2)cc1 | in the range around 3 µM | –
34 | OCCn1nnc(-c2ccccc2Nc2ccc(F)cc2)n1 | in the range around 0.55 µM | –
35 | OCC(O)Cn1nnc(-c2ccccc2Nc2ccc(C(F)(F)F)cc2)n1 (stereo unspecified) | < 0.1 µM | –
36 | CCOC(=O)Cn1ncc(-c2ccccc2Nc2ccc(C(F)(F)F)cc2)c1C | < 0.1 µM | –
37 | CCN(CC)C(=O)Cn1nnc(-c2ccccc2Nc2ccc(C(F)(F)F)cc2)n1 | in the range around 3 µM | –
38 | OCCn1nnc(-c2ccccc2Nc2cccc(C(F)(F)F)c2)n1 | in the range around 3 µM | in the range around 3 µM
39 | NS(=O)(=O)NCCn1nnc(-c2ccccc2Nc2ccc(C(F)(F)F)cc2)n1 | in the range around 3 µM | –
40 | CNC(=O)Cn1nnc(-c2ccccc2Nc2ccc(C(F)(F)F)cc2)n1 | < 0.1 µM | –
41 | CCOC(=O)Cn1ncc(-c2ccccc2Nc2cccc(C(F)(F)F)c2)c1C | in the range around 3 µM | –
42 | OCCn1nnc(-c2ccccc2Nc2ccc(F)c(F)c2)n1 | in the range around 0.55 µM | –
43 | CC(=O)NCCn1nnc(-c2ccccc2Nc2ccc(C(F)(F)F)cc2)n1 | in the range around 0.55 µM | –
44 | CS(=O)(=O)NCCn1nnc(-c2ccccc2Nc2ccc(C(F)(F)F)cc2)n1 | in the range around 3 µM | –
45 | O=C(Cn1nnc(-c2ccccc2Nc2ccc(C(F)(F)F)cc2)n1)c1ccccc1 | in the range around 3 µM | –
46 | OCCCn1nnc(-c2ccccc2Nc2cccc(C(F)(F)F)c2)n1 | in the range around 0.55 µM | –

Row | Structure (SMILES) | IC50 (HEK-293T, 24 h) | IC50
47 | FC(F)(F)c1ccc(Nc2ccccc2-c2nnn(C3CCOC3)n2)cc1 (stereo unspecified) | < 0.1 µM | –
48 | Cc1nn(CCO)cc1-c1ccccc1Nc1ccc(C(F)(F)F)cc1 | in the range around 3 µM | –
49 | FC(F)(F)c1ccc(Nc2ccccc2-c2nnn(C3CCCOC3)n2)cc1 (stereo unspecified) | in the range around 0.55 µM | –
50 | FC(F)(F)c1ccc(Nc2ccccc2-c2nnn(C3CCOCC3)n2)cc1 | in the range around 0.55 µM | –
51 | CCOC(=O)Cn1cc(-c2ccccc2Nc2ccc(C(F)(F)F)cc2)cn1 | < 0.1 µM | –
52 | COc1ccc(Nc2ccccc2-c2nnn(CCO)n2)cc1 | in the range around 0.55 µM | –
53 | COCC(C)n1nnc(-c2ccccc2Nc2ccc(C(F)(F)F)cc2)n1 (stereo unspecified) | < 0.1 µM | –
54 | O=C(O)Cn1cc(-c2ccccc2Nc2ccc(C(F)(F)F)cc2)cn1 | in the range around 0.55 µM | –
55 | Cc1c(-c2ccccc2Nc2ccc(C(F)(F)F)cc2)cnn1CCO | in the range around 3 µM | –
56 | OCCn1nnc(-c2ccccc2Nc2ccc(SC(F)F)cc2)n1 | in the range around 0.55 µM | –
57 | CCc1ccc(Nc2ccccc2-c2nnn(CCO)n2)cc1 | in the range around 0.55 µM | –
58 | CCOC(=O)Cn1cc(-c2ccccc2Nc2cccc(C(F)(F)F)c2)nn1 | in the range around 3 µM | –
59 | OCCCn1nnc(-c2ccccc2Nc2ccc(C(F)(F)F)cc2)n1 | < 0.1 µM | –
60 | CCOC(=O)Cn1cc(-c2ccccc2Nc2ccc(C(F)(F)F)cc2)c(C)n1 | in the range around 0.55 µM | –
61 | CNC(=O)Cn1nnc(-c2ccccc2Nc2ccc(OC(F)(F)F)cc2)n1 | in the range around 0.55 µM | –
62 | OCCn1nnc(-c2ccccc2Nc2ccc(OC(F)(F)F)cc2)n1 | < 0.1 µM | –
63 | CN(C)C(=O)Cn1nnc(-c2ccccc2Nc2ccc(C(F)(F)F)cc2)n1 | in the range around 0.55 µM | –
64 | NS(=O)(=O)Cn1nnc(-c2ccccc2Nc2ccc(C(F)(F)F)cc2)n1 | in the range around 0.55 µM | –
65 | FC(F)(F)c1ccc(Nc2ccccc2-c2nnn(Cc3ccccn3)n2)cc1 | in the range around 0.55 µM | –
66 | O=C(Cn1nnc(-c2ccccc2Nc2ccc(C(F)(F)F)cc2)n1)NO | in the range around 0.55 µM | –
67 | O=C(Cn1nnc(-c2ccccc2Nc2ccc(C(F)(F)F)cc2)n1)C1CC1 | in the range around 0.55 µM | –
68 | CN(C)CCn1nnc(-c2ccccc2Nc2ccc(C(F)(F)F)cc2)n1 | in the range around 0.55 µM | –
69 | CC(C)C(=O)Cn1nnc(-c2ccccc2Nc2ccc(C(F)(F)F)cc2)n1 | in the range around 0.55 µM | –
